Experimental findings from US11654203B2 are described below.

Series [1] relates to human colorectal cancer cells (HCT15). Kind of series: NanoSPECT/CT imaging of colorectal cancer animal model. The class given is in vivo, BALB/c nude mouse. As to conditions: caudal vein, 25 mCi/kg, imaged at 2, 4, 24, 48 h. The procedure:
(1) Each BALB/c nude mouse that was 8 weeks old was subjected to subcutaneous injection of human colorectal cancer cells (HCT15, 1*10^6 cells) on a right hind leg, grew for 10-14 d, and started to be dosed with the drug when a cell tumor grew to a size of 50-100 mm^3.
(3) NanoSPECT/CT image analysis was carried out at 2nd h, 4th h, 24th h and 48th h after animal dosage (brand: Mediso).
(4) Obtained images were subjected to image recombination and outputting by VivoQuamt software.

The test system is the same in series [2]. Kind of series: Colorectal cancer animal bio-distribution (gamma counter). As to conditions: 25 mCi/kg, n=3. The class given is in vivo, BALB/c nude mouse.
Source text: (3) There were four time points in each group and three mice at each time point.
(4) The animals were sacrificed at 2nd h, 4th h, 24th h and 48th h after dosage to take organs (brain, heart, lung, liver, kidney, spleen, stomach, large intestine, small intestine, tumor, muscle and blood).
(5) Tissue organs were weighed, and radioactivities were counted and read by a gamma counter.
(6) With a percentage (%) of a radioactivity count of Injected Dose (ID) in a radioactivity count of each gram (g) of tissue as unit (% ID/g), the line graph was drawn for showing.
The value was a percentage of Injected Dose in each gram of organs (% ID/g). […] Data was represented by an average value ±SEM (n=3).

Take `O=C([O-])CN1CCN(CC(=O)[O-])CCN(CC(=O)[O-])CCN(CC(=O)[O-])CC1.[111In+3]` [^111In-DOTA]: in series [1], the “drug gathering at tumor hypoxia position, nanoSPECT/CT” value is “no obvious drug gathering phenomenon”. This compound showed a tumor absorbability in series [2] (2nd h after caudal vein dosage) of 0.88 % ID/g. Besides, the “gathering degree at the tumor hypoxia position” value in series [2] (24th h after caudal vein dosage) came out at 1.08 % ID/g.
